Test results published in patent US9856232B1, “Dihydropyrimidinone derivatives” (KING SAUD UNIVERSITY, priority 2017, dated 2018).

How the values were obtained:
[1] = system: Gastric lesions induced by 80% ethanol; test: Gastric lesions induced by ethanol (ulcer index by severity scores); format: in vivo, Albino Wistar rats; conditions: Rattus norvegicus, po, vs 80% EtOH group, read-out: Gastric lesions induced by 80% ethanol, % change; for inhibition in vivo at 25 mg/kg: compound 25 mg/kg; for inhibition in vivo at 50 mg/kg: compound 50 mg/kg; for inhibition in vivo at 12.5 mg/kg: compound 12.5 mg/kg
Experimental: Albino Wistar rats of either sex, approximately the same age, weighing 150 to 200 g and fed on a diet of standard chow were used in this study. They were randomly divided into experimental groups of six rats each. Compounds (N-1 to N-18) 12.5, 25, and 50 mg/kg were given orally in the anti-ulcer studies and intraperitoneally for gastric secretion evaluation. The rats were sacrificed, and the stomachs removed and opened along the greater curvature, After washing with saline, the gastric lesions were quantified by a person unaware of the treatments. The animal study protocol was approved by the Research and Ethics Committee of the Experimental Animal Care Society, College of Pharmacy, King Saud University, Riyadh, Saudi Arabia.
Gastric lesions induced by ethanol: Albino rats of either sex weighing between (150-200 g) are divided into groups. The animals were fasted for 24 hours with free access to water. Animals were given test drugs or standard drug. One hour later 1 mL/200 gm of 80% ethanol is administered orally to each animal. The animals were anaesthetized 1 hour latter with anesthetic ether and stomach was incised along the greater curvature and ulceration was scored. The number of ulcers and the length of each ulcer were measured. Ulcer index was calculated using severity scores. The mucosal damage was examined by means of a magnifying glass. For each stomach the mucosal damage was assessed according to the following scoring system: 0.5 redness; 1.0 spot ulcers; 1.5 hemorrhagic streaks; 2.0 ulcers<3, but≦5; 3.0 ulcers>5. Table 1 provides the effect of compounds on gastric lesions induced by 80% ethanol (mean±SE).

Row | SMILES | melting point | inhibition in vivo at 25 mg/kg [1] | inhibition in vivo at 50 mg/kg [1] | inhibition in vivo at 12.5 mg/kg [1]
1 | O=C1NC=C(C(=O)c2ccc(N3CCCCC3)cc2)C(c2ccccc2[N+](=O)[O-])N1 (centres unmarked) [Compound N-2, 4-(2-Nitrophenyl)-5-[4-(piperidin-1-yl)benzoyl]-3,4-dihydropyrimidine-2(1H)-one] | 190 to 192 °C | 21.4% | 28.5% | 14.2%
2 | O=C1NC=C(C(=O)c2ccc(N3CCCCC3)cc2)C(c2cccc([N+](=O)[O-])c2)N1 (centres unmarked) [Compound N-4, 4-(3-Nitrophenyl)-5-[4-(piperidin-1-yl)benzoyl]-3,4-dihydropyrimidin-2(1H)-one] | 185 to 187 °C |  | 7.4% | 
3 | O=C1NC=C(C(=O)c2ccc(N3CCCCC3)cc2)C(c2ccccc2)N1 (centres unmarked) [Compound N-1, 4-Phenyl-5-[4-(piperidin-1-yl)benzoyl]-3,4-dihydropyrimidin-2(1H)-one] | 220 to 222 °C |  |  | 
4 | O=C1NC=C(C(=O)c2ccc(N3CCCCC3)cc2)C(c2cccc(O)c2)N1 (centres unmarked) [Compound N-10, 4-(3-Hydroxyphenyl)-5-[4-(piperidin-1-yl)benzoyl]-3,4-dihydropyrimidin-2(1H)-one] | 190 to 192 °C | 17.8% | 21.4% | 14%
5 | O=C1NC=C(C(=O)c2ccc(N3CCCCC3)cc2)C(c2ccc(O)cc2)N1 (centres unmarked) [Compound N-9, 4-(4-Hydroxyphenyl)-5-[4-(piperidin-1-yl)benzoyl]-3,4-dihydropyrimidin-2(1H)-one] | 210 to 212 °C | 2% |  | 
6 | O=C1NC=C(C(=O)c2ccc(N3CCCCC3)cc2)C(c2ccc(Cl)cc2)N1 (centres unmarked) [Compound N-5, 4-(4-Chlorophenyl)-5-[4-(piperidin-1-yl)benzoyl]-3,4-dihydropyrimidin-2(1H)-one] | 230 to 232 °C | 7.1% | 10.7% | 
7 | O=C1NC=C(C(=O)c2ccc(N3CCCCC3)cc2)C(c2ccc(Cl)cc2Cl)N1 (centres unmarked) [Compound N-6, 4-(2,4-Dichlorophenyl)-5-[4-(piperidin-1-yl)benzoyl]-3,4-dihydropyrimidin-2(1H)-one] | 195 to 197 °C | 7.1% | 10.7% | 
8 | COc1ccc(C2NC(=O)NC=C2C(=O)c2ccc(N3CCCCC3)cc2)cc1OC (centres unmarked) [Compound N-7, 4-(3,4-Dimethoxyphenyl)-5-[4-(piperidin-1-yl)benzoyl]-3,4-dihydropyrimidin-2(1H)-one] | 145 to 147 °C | 26.6% | 33.3% | 10%

Continued, in another order:

Row | melting point | SMILES | inhibition in vivo at 25 mg/kg [1] | inhibition in vivo at 50 mg/kg [1] | inhibition in vivo at 12.5 mg/kg [1]
9 | 200 to 202 °C | CCOc1ccc(C2NC(=O)NC=C2C(=O)c2ccc(N3CCCCC3)cc2)cc1 (centres unmarked) [Compound N-13, 4-(4-Ethoxyphenyl)-5-[4-(piperidin-1-yl)benzoyl]-3,4-dihydropyrimidin-2(1H)-one] | 7.1% | 14.2% | 
10 | 135 to 137 °C | COc1ccc(C2NC(=O)NC=C2C(=O)c2ccc(N3CCCCC3)cc2)c(OC)c1 (centres unmarked) [Compound N-18, 4-(2,4-Dimethoxyphenyl)-5-[4-(piperidin-1-yl)benzoyl]-3,4-dihydropyrimiden-2(1H)-one] | 16.1% | 22.5% | 6.4%
11 | 135 to 137 °C | COc1cc(C2NC(=O)NC=C2C(=O)c2ccc(N3CCCCC3)cc2)cc(OC)c1OC (centres unmarked) [Compound N-16, 4-(3,4,5-Trimethoxyphenyl)-5-[4-(piperidin-1-yl)benzoyl]-3,4-dihydropyrimidin-2(1H)-one] | 17.8% | 21.4% | 7.1%
12 | 160 to 162 °C | COc1cccc(C2NC(=O)NC=C2C(=O)c2ccc(N3CCCCC3)cc2)c1 (centres unmarked) [Compound N-12, 4-(3-Methoxyphenyl)-5-[4-(piperidin-1-yl)benzoyl]-3,4-dihydropyrimidin-2(1H)-one] | 7.1% | 10.7% | 
13 | 140 to 142 °C | COc1cc(OC)c(C2NC(=O)NC=C2C(=O)c2ccc(N3CCCCC3)cc2)c(OC)c1 (centres unmarked) [Compound N-17, 4-(2,4,6-Trimethoxyphenyl)-5-[4-(piperidin-1-yl)benzoyl]-3,4-dihydropyrimidin-2(1H)-one] | 27.5% | 37.9% | 
14 | 155 to 157 °C | COc1cc(OC)c(C2NC(=O)NC=C2C(=O)c2ccc(N3CCCCC3)cc2)cc1OC (centres unmarked) [Compound N-14, 4-(2,4,5-Trimethoxyphenyl)-5-[4-(piperidin-1-yl)benzoyl]-3,4-dihydropyrimiden-2(1H)-one] | 27.5% | 37.9% | 10.3%
